Measured values taken from ChEMBL document CHEMBL2331464, “Diarylheptanoids and flavonoids from viscum album inhibit LPS-stimulated production of pro-inflammatory cytokines in bone marrow-derived dendritic cells” (J Nat Prod, 2013).

Columns and labels:
Conditions in all cases: bmdc
[1] = Cytotoxicity against C57BL/6 mouse BMDCs at 2 to 50 microM by MTT assay
[2] = Antiinflammatory activity in C57BL/6 mouse BMDCs assessed as inhibition of LPS-stimulated TNF-alpha production treated 1 hr before LPS challenge measured 16 hrs post stimulation by ELISA
[3] = Antiinflammatory activity in C57BL/6 mouse BMDCs assessed as inhibition of LPS-stimulated IL-12p40 production treated 1 hr before LPS challenge measured 16 hrs post stimulation by ELISA
[4] = system: IL-6 (mouse); experiment: Antiinflammatory activity in C57BL/6 mouse BMDCs assessed as inhibition of LPS-stimulated IL-6 production treated 1 hr before LPS challenge measured 16 hrs post stimulation by ELISA

IC50 [2] [µM]	IC50 [3] [µM]	IC50 [4] [µM]	SMILES	Activity [1]
> 50	> 50	> 50	COc1cc(O)c2c(c1)O[C@H](c1ccc(O[C@@H]3O[C@H](CO)[C@@H](O)[C@H](O)[C@H]3O[C@@H]3OC[C@](O)(CO[C@@H]4OC[C@](O)(CO)[C@H]4O)[C@H]3O)c(OC)c1)CC2=O	Non-toxic
> 50	> 50	> 50	COc1cc(O)c2c(c1)O[C@H](c1ccc(O[C@@H]3O[C@H](CO)[C@@H](O)[C@H](O)[C@H]3O[C@@H]3OC[C@](O)(CO)[C@H]3O)c(OC)c1)CC2=O	Non-toxic
> 50	> 50	> 50	COc1cc([C@@H]2CC(=O)c3c(O)cc(O[C@@H]4O[C@H](CO)[C@@H](O)[C@H](O)[C@H]4O[C@@H]4OC[C@](O)(CO)[C@H]4O)cc3O2)ccc1O	Non-toxic
> 50	14.6	> 50	COc1cc([C@@H]2c3c(cc(OC)c(O)c3OC)C[C@H](CO)[C@H]2CO[C@@H]2O[C@H](CO)[C@@H](O)[C@H](O)[C@H]2O)cc(OC)c1O	Non-toxic
> 50	> 50	> 50	COc1cc(/C=C/CO)cc(OC)c1O[C@@H]1O[C@H](CO)[C@@H](O)[C@H](O)[C@H]1O[C@@H]1OC[C@](O)(CO)[C@H]1O	Non-toxic
0.32	0.09	0.68	CO[C@@H](/C=C/c1ccc(O)cc1)C[C@@H](O)CCc1ccc(O)cc1	Non-toxic
> 50	11.8	> 50	CO[C@H](/C=C/c1ccc(O)cc1)C[C@@H](O)CCc1ccc(O)cc1	Non-toxic
> 50	> 50	> 50	O=C(/C=C/c1ccc(O)cc1)C[C@@H](O)CCc1ccc(O)cc1	Non-toxic
1.01	3.86	8.96	COc1cc(O)c2c(=O)c(OC)c(-c3ccc(O[C@@H]4O[C@H](CO)[C@@H](O)[C@H](O)[C@H]4O[C@@H]4OC[C@](O)(CO)[C@H]4O)c(OC)c3)oc2c1	Non-toxic
> 50	> 50	> 50	COc1cc(O)c2c(=O)c(O[C@H]3O[C@H](COC(=O)CC(C)(O)CC(=O)O)[C@@H](O)[C@H](O)[C@H]3O)c(-c3ccc(O[C@@H]4O[C@H](CO)[C@@H](O)[C@H](O)[C@H]4O)c(OC)c3)oc2c1 (some centres undefined)	Non-toxic
> 50	> 50	> 50	COc1cc(O)c2c(=O)c(O[C@H]3O[C@H](COC(=O)CC(C)(O)CC(=O)OC[C@H]4O[C@@H](Oc5c(OC)cc(/C=C/CO)cc5OC)[C@H](O)[C@@H](O)[C@@H]4O)[C@@H](O)[C@H](O)[C@H]3O)c(-c3ccc(O[C@@H]4O[C@H](CO)[C@@H](O)[C@H](O)[C@H]4O)c(OC)c3)oc2c1 (some centres undefined)	Non-toxic
> 50	76.8	> 50	COc1cc(-c2cc(=O)c3c(O)cc(O[C@@H]4O[C@H](CO)[C@@H](O)[C@H](O)[C@H]4O[C@@H]4OC[C@](O)(CO)[C@@H]4O)cc3o2)ccc1O	Non-toxic
> 50	> 50	> 50	COc1cc(O)c2c(=O)cc(-c3ccc(O[C@@H]4O[C@H](CO)[C@@H](O)[C@H](O)[C@H]4O[C@@H]4OC[C@](O)(CO)[C@H]4O)c(OC)c3)oc2c1	Non-toxic
22.3	2	20.9	COc1cc([C@H]2OC[C@H]3[C@@H]2CO[C@@H]3c2cc(OC)c(O)c(OC)c2)ccc1O	Non-toxic
> 50	> 50	> 50	COc1cc([C@H]2c3c(cc(OC)c(O)c3OC)C[C@@H](CO)[C@@H]2CO[C@@H]2O[C@H](CO)[C@@H](O)[C@H](O)[C@H]2O)cc(OC)c1O	Non-toxic
–	–	–	COc1cc([C@H]2OC[C@H]3[C@@H]2CO[C@@H]3c2ccc(O)c(OC)c2)ccc1O [(+)-PINORESINOL]	Non-toxic
> 50	28.6	> 50	COc1cc([C@@H]2OC[C@@H]3[C@H]2CO[C@H]3c2ccc(O)c(OC)c2)ccc1O [(+)-PINORESINOL]	–
> 50	13.5	> 50	CC1(C)CC[C@]2(CO)CC[C@]3(C)C(=CC[C@@H]4[C@@]5(C)CC[C@H](O)C(C)(C)[C@@H]5CC[C@]43C)[C@@H]2C1 [ERYTHRODIOL]	Non-toxic
2.02	7.57	20.2	C=CC(C)(O)CC/C=C(\C)CCC=C(C)C (centres undefined) [NEROLIDOL]	Non-toxic
> 50	> 50	> 50	CC1(C)CC[C@]2(C(=O)O)CC[C@]3(C)C(=CC[C@@H]4[C@@]5(C)CC[C@H](O)C(C)(C)[C@@H]5CC[C@]43C)[C@@H]2C1 [OLEANOLIC_ACID]	Non-toxic
1.22	3.62	2.02	C/C(=C\CO)CCC[C@H](C)CCC[C@H](C)CCCC(C)C [TRANS-PHYTOL]	Non-toxic
> 50	> 50	> 50	COc1cc([C@@H]2CC(=O)c3c(O)cc(O[C@@H]4O[C@H](CO)[C@@H](O)[C@H](O)[C@H]4O[C@@H]4OC[C@](O)(CO[C@@H]5OC[C@](O)(CO)[C@H]5O)[C@H]4O)cc3O2)ccc1O [VISCUMNEOSIDE V]	Non-toxic
> 50	> 50	> 50	CC(=O)O[C@H]1CC[C@]2(C)[C@H]3CC=C4[C@@H]5CC(C)(C)CC[C@]5(C)CC[C@@]4(C)[C@]3(C)CC[C@H]2C1(C)C [beta-AMYRIN ACETATE]	Non-toxic

SMILES	IC50 [2] [µM]	IC50 [3] [µM]	IC50 [4] [µM]	Activity [1]
C=C(C)[C@@H]1CC[C@]2(C(=O)O)CC[C@]3(C)[C@H](CC[C@@H]4[C@@]5(C)CC[C@H](O)C(C)(C)[C@@H]5CC[C@]43C)[C@@H]12 [BETULINIC ACID]	19.4	3.61	21.3	Non-toxic
C[S+]([O-])c1ccc(-c2nc(-c3ccc(F)cc3)c(-c3ccncc3)[nH]2)cc1 (centres undefined) [SB-203580]	7.53	5.21	3.45	–
COc1cc(/C=C/CO)cc(OC)c1O[C@@H]1O[C@H](CO)[C@@H](O)[C@H](O)[C@H]1O [SYRINGIN]	> 50	> 50	> 50	Non-toxic
